Assay results: article PMC12609579, “Acute Myeloid Leukemia: A Key Role of DGKα and DGKζ in Cell Viability” (Cells, 2025)
Where two headings read alike, the source gives them in different places.

Assays:
KG-1α = system: KG-1α; set-up: method as in PMID 37392305; settings: read-out: IC50 (cytotoxic effects), cited from earlier work
HL-60 cells [1] = assay: alamarBlue cell viability assay, HL-60; format: cell-based, human
Experimental: The alamarBlue assay was performed to assess cell viability in presence of chemical inhibitors. A total of 50,000 cells per well were seeded in a 96-wells plate in a volume of 100 μL of complete medium together with 10 μL of 10× concentrated inhibitor solution and then incubated for either 24 or 72 h. Each experimental condition was performed in technical quadruplicates, using cells treated with equal amounts of DMSO vehicle as control and medium alone as background. After incubation, alamarBlue was added to each well at a final concentration of 0.15 mg/mL. The fluorescence of the samples was measured 24 h later using a Spark 10 M Multimode Plate Reader (Tecan, Switzerland) with excitation and emission wavelengths of 535 nm and 590 nm, respectively. For dose–response curve fitting, fluorescence values were normalized according to the following formula:Viability (%) = [(sample mean fluorescence)/(DMSO control mean fluorescence)] ∗ 100
Data are the results of at least five independent experiments analyzed with GraphPad Prism 10 as [inhibitor] vs. normalized response curve (variable slope, after manual outlier removal).

HL-60 cells [2] = assay: Annexin V-FITC/7AAD apoptosis/necrosis flow cytometry, HL-60; format: cell-based, human; settings: HL-60, 24 h
Experimental: To determine the type of cell death, apoptotic and necrotic cells were detected by flow cytometry using the Apoptosis Detection Kit Annexin V-FITC (Invitrogen, Carlsbad, CA, USA). For each sample, 500,000 cells, pretreated for 24 h, were stained according to manufacturer’s instructions, using 7-aminoactinomycin D (7AAD) instead of propidium iodide. Samples were analyzed on a BD FACS Symphony A5 flow cytometer (Franklin Lakes, NJ, USA) using BD FACSDiva 9.1 software. Data were gated based on FSC-A vs. FSC-H to exclude cell doublets and FSC-A vs. SSC-A to exclude debris. Different populations were identified as: live (Annexin V− and 7AAD−), necrotic (Annexin− and 7AAD+), early apoptotic (Annexin V+ and 7AAD−) and late apoptotic (Annexin+ and 7AAD+). Data are shown as mean ± SD of at least three independent experiments analyzed by GraphPad Prism 10 (control vs. [inhibitor]).

[3] = concentration close to IC50, representative plot

Question: With `Cc1nc2sccn2c(=O)c1CCN1CCC(=C(c2ccc(F)cc2)c2ccc(F)cc2)CC1` [ritanserin] as the molecule, how does the IC50 (KG-1α; 24 h) read?
Answer: Its IC50 is 38 µM.

Question: And the IC50 (KG-1α; 72 h)?
Answer: Its IC50 is 26 µM.

Question: And the IC50 (HL-60 cells [1]; HL-60, 24 h treatment then alamarBlue 24 h)?
Answer: Its IC50 is ~38 µM.

Question: What about the IC50 (HL-60 cells [1]; Homo sapiens, HL-60, 24 h, HL-60, 24 h treatment then alamarBlue 24 h) of the same molecule?
Answer: Its IC50 is 37.6 ± 1.5 µM.

Question: And the IC50 (HL-60 cells [1]; Homo sapiens, HL-60, HL-60, 72 h treatment then alamarBlue 24 h)?
Answer: Its IC50 is 25.3 ± 0.9 µM.

Question: And the “Early apoptotic (Annexin V+ 7AAD-)” value (HL-60 cells [2]; [3])?
Answer: The value was 3.3%.

Question: And the “Late apoptotic (Annexin+ 7AAD+)” value (HL-60 cells [2]; [3])?
Answer: Its value is 62.9%.

Question: What about the “Live cells (Annexin V- 7AAD-)” value (HL-60 cells [2]; [3]) of the same molecule?
Answer: Its value is 33.8%.

Question: And the “Necrotic (Annexin- 7AAD+)” value (HL-60 cells [2]; [3])?
Answer: Its value is 0%.

Question: What about the “modality of cell death” value (HL-60 cells [2]; concentration near IC50) of the same molecule?
Answer: The value was “late apoptosis”.
